Experimental data: patent publication EP0739978A2, “Hydantoinase from agrobacterium tumefaciens and its use for the preparation of optically pure N-carbamyl-D-amino acids from racemic hydantoins” (W.R. Grace & Co.-Conn., priority 1995, dated 1996)

Key:
[1] = tested on: A. tumefaciens ATCC 55632 hydantoinase; test: Substrate specificity; assay type: biochemical; conditions: for Relative Activity (%): substrate 5 mg/ml in 50 mM Tris-HCl pH 9.0, 40°C, 10 minutes, DL-5-Methylhydantoin = 100; for % Relative Activity with: ATCC 55632: Table 6 values rescaled to 5,6-Dihydrouracil = 100
Method: A. Temperature/activity relationship. Hydantoinase activity was measured using a modification of the colorimetric procedure for detecting N-carbamyl amino acids with p-dimethylaminobenzaldehyde (PDMB) as described by Cecere, et al. (FEBS Letters, 57:192 (1975)). Reaction mixtures (total vol. of 0.4 ml in microfuge tubes) contained 75 µmol of DL-5-methylhydantoin (unless designated otherwise) in 50 mM Tris-HCl buffer (pH 9.0) and a suitable amount of hydantoinase extract. Hydantoinase extracts were added to reaction mixtures which had been pre-equilibrated at 40°C, and after 10 minutes incubation at this temperature, reactions were terminated by the addition of 100 µl of 10% (weight/volume) trichloroacetic acid, followed by 100 µl of 10% (weight/volume) PDMB in 6 N HCl. The solutions were mixed, diluted with 0.6 ml of water and centrifuged at 10,000 rpm for 5 minutes. The absorbencies of the supernatant fractions were determined at 440 nm with a Shimadzu Model 160 spectrophotometer. One unit of activity is defined as the amount of enzyme required to form 1 µmol of N-carbamyl amino acid under these conditions. Protein was determined by the BCA assay as per the manufacturer's instructions. (Pierce Chemical Co., Rockford, IL). Specific activity is expressed as units per mg protein. For the determination of the effect of temperature on hydantoinase activity, hydantoinase extracts of A. tumefaciens were added to reaction mixtures pre-equilibrated at various temperatures and activities were determined by the aforementioned assay. Controls (minus enzyme) were run for each temperature and the values obtained were subtracted from the test sample.
Referring to Table 5, the hydantoinase of the present invention differs from previously described hydantoinases in its combination of high temperature and pH optima, pH stability and lack of requirement or stimulation by metal ions. […] E. Substrate specificity. The substrate specificity of the A. tumefaciens ATCC 55632 hydantoinase was determined by adding hydantoinase extract to 0.4 ml of substrate solution (5 mg/ml 50 mM Tris-HCl buffer, pH 9.0) and incubating the reaction mixtures at 40°C in a water bath for 10 minutes in sealed tubes. The reactions were terminated and further processed as described previously. Controls (minus enzyme) were run for each substrate the values obtained were subtracted from the test sample.

[2] = tested on: hydantoinase; conditions: Agrobacterium radiobacter hydantoinase; cited from earlier work
[3] = target: hydantoinase (Pseudomonas putida, UniProt Q59699); conditions: Pseudomonas fluorescens DSM 84 hydantoinase; cited from earlier work
[4] = tested on: hydantoinase; conditions: Pseudomonas sp. AJ 11220 hydantoinase; cited from earlier work
[5] = tested on: hydantoinase; conditions: Agrobacterium IP I671 hydantoinase; cited from earlier work
[6] = tested on: A. tumefaciens ATCC 55632; test: Induction of hydantoinase activity, basal salts medium with yeast extract and glucose; assay type: cell-based; conditions: addition 2 mg/ml, cells harvested after 8 hours; no addition 0.06
Method: In particular it should be noted that the substrate specificity of hydantoinase from A. tumefaciens ATCC 55632 differs substantially from those described for other Agrobacterium species (5 and 6) due to its high relative activity with dihydrouracil and 5-methylhydantoin and its relatively low rate of hydrolysis with 5-benzylhydantoin F. Induction of hydantoinase activity. A. tumefaciens ATCC 55632 was grown in a medium containing basal salts medium, 1% yeast extract and 20 mM glucose. Various hydantoins or carbamyl amino acids were added to a concentration of 2 mg/ml to induce hydantoinase activity. Cells were harvested after 8 hours, hydantoinase extracts were prepared and hydantoinase activity was determined. […]

[7] = tested on: hydantoinase; conditions: Arthrobacter crystallopoietes AM2 hydantoinase; cited from earlier work
[8] = tested on: hydantoinase; conditions: P. striata hydantoinase; cited from earlier work
[9] = tested on: A. tumefaciens ATCC 55632; test: Induction of hydantoinase activity, complex medium (separate experiment); assay type: cell-based; conditions: for Specific Activity (Units/mg): inducer 1 gm/liter, complex medium, 24 hours at 30°C, no inducer 0.13
Method: 2,4-Thiouracil (2,4-dithiouracil) has been reported to induce hydantoinase activity in Agrobacterium IP I-671 by 40-fold [Meyer, et al., FEMS 109:71(1993)]. In a separate experiment, hydantoinase activities were determined following the growth of A. tumefaciens ATCC 55632 on a complex medium (750 ml) (see media preparation described in Example 1) containing the inducing compounds at 1 gm/liter. The culture media were inoculated with 24 hour seed culture of A. tumefaciens ATCC 55632 and incubated for 24 hours with shaking at 30°C. Hydantoinase extracts were prepared and the effect of 2,4-thiouracil on hydantoinase induction of A. tumefaciens is shown in Table 9.

[10] = tested on: Agrobacterium IP I-671; conditions: cited from earlier work
[11] = tested on: Hydantoinase extract of A. tumefaciens ATCC 55632; test: Hydantoinase activation by metals; assay type: biochemical; conditions: 2 mM metal ion, dialyzed extract pre-incubated 30 minutes, assay at 40°C pH 9.0; control without addition 26.4
Method: Reaction mixtures (total vol. of 0.4 ml in microfuge tubes) contained 75 µmol of DL-5-methylhydantoin (unless designated otherwise) in 50 mM Tris-HCl buffer (pH 9.0) and a suitable amount of hydantoinase extract. Hydantoinase extracts were added to reaction mixtures which had been pre-equilibrated at 40°C, and after 10 minutes incubation at this temperature, reactions were terminated by the addition of 100 µl of 10% (weight/volume) trichloroacetic acid, followed by 100 µl of 10% (weight/volume) PDMB in 6 N HCl. The solutions were mixed, diluted with 0.6 ml of water and centrifuged at 10,000 rpm for 5 minutes. The absorbencies of the supernatant fractions were determined at 440 nm with a Shimadzu Model 160 spectrophotometer. One unit of activity is defined as the amount of enzyme required to form 1 µmol of N-carbamyl amino acid under these conditions. Protein was determined by the BCA assay as per the manufacturer's instructions. […] Specific activity is expressed as units per mg protein.
D. Hydantoinase activation by metals. […] Solutions (360 µl) containing either 2 mM Mg^++, Co^++ or Ni^++ in 50 mM Tris buffer, pH 9.0 were pre-incubated with dialyzed hydantoinase extract for 30 minutes at ambient temperature. The reaction mixtures were equilibrated in a 40°C water bath for 2 minutes. The hydantoinase assay was started immediately with the addition of 40 µl DL-5-methylhydantoin (100 mg/ml in 50 mM Tris-HCl buffer, pH 9.0).

hydantoinase (Pseudomonas putida, UniProt Q59699), sequence (Q59699 whole entry): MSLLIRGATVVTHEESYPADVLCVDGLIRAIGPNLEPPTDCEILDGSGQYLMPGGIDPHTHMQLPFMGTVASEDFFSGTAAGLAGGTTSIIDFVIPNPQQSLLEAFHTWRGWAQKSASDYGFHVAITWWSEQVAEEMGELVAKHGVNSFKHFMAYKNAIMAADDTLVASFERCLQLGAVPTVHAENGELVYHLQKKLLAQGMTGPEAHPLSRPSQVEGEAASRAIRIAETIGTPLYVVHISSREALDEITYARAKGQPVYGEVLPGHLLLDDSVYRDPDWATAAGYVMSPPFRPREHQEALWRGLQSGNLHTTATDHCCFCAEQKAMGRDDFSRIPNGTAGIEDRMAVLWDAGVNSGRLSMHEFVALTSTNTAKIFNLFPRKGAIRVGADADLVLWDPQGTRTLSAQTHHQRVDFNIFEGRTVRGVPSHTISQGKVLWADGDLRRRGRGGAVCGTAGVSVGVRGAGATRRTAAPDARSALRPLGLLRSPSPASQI

CCC(C)C1NC(=O)NC1=O (racemic) [DL-5-(sec)-Butylhydantoin]
Relative Activity (%) [1]: 76%

O=C1NC(=O)C(Cc2ccccc2)N1 (racemic) [DL-5-Benzylhydantoin]
% Relative Activity with: ATCC 55632 [1]: 15% | Relative Activity (%) [1]: 19% | % Relative Activity with: 5 [2]: 32% | % Relative Activity with: 2 [3]: 2% | % Relative Activity with: 4 [4]: 57% | % Relative Activity with: 6 [5]: 100%

O=C1NC(=O)C(CO)N1 (racemic) [DL-5-Hydroxymethylhydantoin]
Relative Activity (%) [1]: 22%

CC(C)CC1NC(=O)NC1=O (racemic) [DL-5-Isobutylhydantoin]
Relative Activity (%) [1]: 77%

CC(C)C1NC(=O)NC1=O (racemic) [DL-5-Isopropylhydantoin]
Relative Activity (%) [1]: 73%

CC1NC(=O)NC1=O (racemic) [DL-5-Methylhydantoin]
Specific Activity (U/mg) [6]: 1.65 U/mg | % Relative Activity with: 1 [7]: 100% | % Relative Activity with: 3 [8]: 45% | % Relative Activity with: ATCC 55632 [1]: 80% | Relative Activity (%) [1]: 100% | % Relative Activity with: 5 [2]: 24% | % Relative Activity with: 6 [5]: 37%

O=C1NC(=O)C(c2ccccc2)N1 (racemic) [DL-5-Phenylhydantoin]
% Relative Activity with: 1 [7]: 37% | % Relative Activity with: 3 [8]: 25% | % Relative Activity with: ATCC 55632 [1]: 68% | Relative Activity (%) [1]: 85% | % Relative Activity with: 5 [2]: 51% | % Relative Activity with: 4 [4]: 34%

CN1CC(=O)NC1=O [1-Methylhydantoin]
Specific Activity (U/mg) [6]: 0.09 U/mg

S=c1cc[nH]c(=S)[nH]1 [2,4-Thiouracil]
induction of hydantoinase activity (in words) ([9]; A. tumefaciens ATCC 55632): does not appear to induce hydantoinase activity | Specific Activity (Units/mg) [9]: 0.15 Units/mg | induction of hydantoinase activity ([10]; Meyer, et al., FEMS 109:71(1993)): 40 fold

CSCCC1NC(=O)NC1=O (centres unmarked) [5(2-methylthioethyl) hydantoin]
% Relative Activity with: 3 [8]: 48% | % Relative Activity with: ATCC 55632 [1]: 65% | Relative Activity (%) [1]: 81% | % Relative Activity with: 5 [2]: 100% | % Relative Activity with: 2 [3]: 41% | % Relative Activity with: 4 [4]: 100% | % Relative Activity with: 6 [5]: 55%

O=C1CCNC(=O)N1 [5,6-Dihydrouracil]
Specific Activity (U/mg) [6]: 0.22 U/mg | % Relative Activity with: 1 [7]: 78% | % Relative Activity with: 3 [8]: 100% | % Relative Activity with: ATCC 55632 [1]: 100% | Relative Activity (%) [1]: 125% | % Relative Activity with: 2 [3]: 100% | % Relative Activity with: 4 [4]: 9% | % Relative Activity with: 6 [5]: 10%

[Co+2] [Cobalt]
Hydantoinase Activity (Units/ml) [11]: 27.9 Units/ml

NC(=O)NCC(=O)O [Hydantoic acid]
Specific Activity (U/mg) [6]: 1.34 U/mg

O=C1CNC(=O)N1 [Hydantoin]
Specific Activity (U/mg) [6]: 1.44 U/mg | increase of hydantoinase activity ([9]; A. tumefaciens ATCC 55632, versus no inducer): 10 fold | Specific Activity (Units/mg) [9]: 1.37 Units/mg | induction of hydantoinase activity (in words) ([10]; FEMS 109:71, 1993): does not induce hydantoinase activity

[Mg+2] [Magnesium]
Hydantoinase Activity (Units/ml) [11]: 24.8 Units/ml

C[C@H](NC(N)=O)C(=O)O [N-carbamyl alanine]
Specific Activity (U/mg) [6]: 0.44 U/mg

NC(=O)N[C@@H](Cc1ccccc1)C(=O)O [N-carbamylphenylalanine]
Specific Activity (U/mg) [6]: 0.13 U/mg

[Ni+2] [Nickel]
Hydantoinase Activity (Units/ml) [11]: 25.0 Units/ml

Tryptophan hydantoin
Specific Activity (U/mg) [6]: 0.10 U/mg
